These results are taken from US10888569B1, “Methods and compositions for treating cancer” (THE UNIVERSITY OF CHICAGO, priority 2017, dated 2021).

Holding throughout (type): cell-based, human
In one data set the test system is HMOX1. The data set is described as follows: Real-time quantitative PCR of HMOX1. The note with it: hemin 20 μM, 48 hours; BM1 and MB436 cells. The method, then: (§1) Total RNA from cells and tumor samples was isolated using Trizol (Invitrogen) according to the manufacturer's instructions. Two μg of RNA was adapted for reverse transcriptase PCR (Applied Biosystem) to generate cDNA. Real-time PCR was carried out using LightCycler 96 (Roche) and a Fast Start Essential DNA master mix (2×) reagent. Cq values normalized relative to the expression of endogenous control genes using 2^(−ΔΔCq) were plotted.

A further data set relates to TNBC cells (BM1). The experiment in a line: Metabolic phenotypes OCR and ECAR (Seahorse analyzer). To be noted: hemin (pre-)treatment overnight. Here is the method:
(§2) TNBC cell lines stably knocked down with lenti-viral shRNA for BACH1 were constructed and maintained as described previously. Gene expression analysis of cultured cells and isolated tumor tissues used a Reverse transcriptase kit followed by Roche96 cycler for real time mRNA quantification and Lycor imaging for immunoblotting. For in vitro cell viability assay with mitochondrial inhibitors, TNBC cells (2×10^3-5×10^3/well) seeded on 96 well plates overnight with culture media (DMEM with 25 mM Glucose) were treated with inhibitors in fresh culture media (DMEM with 1.25 mM Glucose) for 48 and 72 hours and stained with calcein AM and/or monitored for cellular confluency using an IncuCyte Zoom Live Cell Analysis system. Extracellular flux analyzer was used to assay metabolic phenotypes of BACH1-depleted TNBC cells and TNBC cells that are treated with hemin overnight before assays. For bioinformatics analysis using primary patient data cohort (TCGA), cBioportal and R were used.
Extracellular acidification rates (ECAR) and oxygen consumption rates (OCR) were monitored by a Seahorse Bioscience Analyzer (XF24; Univ. of Illinois at Chicago and XFe96; Biophysics Core Facility at Univ. of Chicago). Cells were seeded in 24 well plates at a density of 5×10^4 and 96 well plates at a density of 8×10^3 cells per well with growth media for at least 18 hours. The following day, media was changed to base media (DMEM, 143 mM NaCl, Phenol red, pH 7.35). For ECAR analysis, cells were added with media (2 mM Glutamine, pH 7.35) and monitored every 3 minutes following successive administration of 10 mM of glucose, and inhibitors such as 1 μM of oligomycin and 50 mM of 2-DG. For OCR analysis, cells were added with mito stress test base media (10 mM Glucose, 2 mM Glutamine, 1 mM Pyruvate, pH 7.4) and monitored every 3 minutes following successive administration of inhibitors such as 2 μM of oligomycin, 2 μM of FCCP, and […] of Rotenone/AntimycinA. BCA protein assays were used to normalize metabolic rates to cell number.

Data set [1] concerns TNBC cells (BM1, MB436, MB468, BT549). Here is the method:
as §2
Breast cancer cells (5,000 cells/well) and non-malignant mammary epithelial cells (8,000 cells/well) were plated on 96-well plates to observe growth of cells every 4 hours by phase contrast imaging using an IncuCyte Zoom Live Cell Analysis system (Essen Bioscience). After 24 hours of plating, inhibitors were added and monitored until control cells reached 100% confluent. To determine cell viability, cells were seeded in black walled 96-well plates overnight and treated with inhibitors for 48 hours. Calcein AM (R&D system) in PBS was then added and incubated for 1 hour at 37° C. Fluorescence was determined using a Victor3 plate reader (PerkinElmer) with excitation at 420 nm and emission at 520 nm. The absorbance was used to reflect live cell numbers and was normalized to those in control with vehicles and shown as relative viability (%).

The test system of data set [2] is mitochondrial inner membrane genes. The data set is described as follows: Real-time quantitative PCR of mitochondrial inner membrane (ETC) genes. To be noted: hemin 20 μM, 48 hours; BM1 and MB436 cells. The method, then: as §1

As for `C=CC1=C(C)c2cc3[n-]c(cc4[n-]c(cc5nc(cc1n2)C(C)=C5C=C)c(C)c4CCC(=O)O)c(CCC(=O)O)c3C.[Cl-].[Fe+3]` [hemin, Chloro[3,7,12,17-tetramethyl-8,13-divinylporphyrin-2,18-dipropanoato(2-)]iron(III)], the HMOX1 expression result with HMOX1 was “increased”. Moreover, in the data set with TNBC cells (BM1), the ECAR entry is “lower basal ECAR”, the “maximum OCR” value was “higher maximum OCR” and the spare respiratory capacity result is listed as “higher spare respiratory capacity”. For the same molecule, in data set [1] (20 μM hemin), the “cytotoxicity / growth inhibition of cultured TNBC cells” value is reported as “neither cytotoxic nor growth inhibitory”. Also, the “metformin sensitivity of MB468 cells expressing wild type BACH1 when treated with hemin” value in data set [1] (MB468 transfected with pCDH-BACH1) is recorded as “metformin sensitivity was restored”. For the same molecule, in data set [1] (hemin 10-80 μM up to 124 hours), the “cytotoxicity / growth inhibition of TNBC cells” value is reported as “neither cytotoxic nor growth inhibitory”. The mitochondrial gene expression entry in data set [2] is “increased”.
